Tests used:
mAtoh1 = experiment: Induction of mAtoh1 expression in otic spheres (qRT-PCR); type: cell-based, mice; conditions: 7 days, fold-induction relative to DMSO control, ± SEM
Procedure: Generally, organ of Corti cell isolation is carried out on Day 0, largely by the method in Oshima et al., Methods Mol Biol., 2009; 493: 141-162. Cell culture and propagation are carried out for 3-4 days. Cell plating and test compound treatment takes place on Day 3 or 4. Attachment and differentiation is allowed to take place over the next 7 days. On Days 10 or 11, cell lysis and RNA isolation is carried out. TagMan qRT-PCR is carried out on Day 12 and the results analyzed on Days 13-15 for Atoh1 and Tbp1 expression.
Surrounding tissue from the petrous portion of the temporal bone are removed from 1 to 4 day-old postnatal mice (transgenic strain: mAtoh1-driven nGFP; Lumpkin E A, et al., Gene Expr Patterns, 2003; (36): 389-95 of both sexes. The conch shaped cochlea is separated from the vestibular system using forceps. At this stage of development, the bony labyrinth is not completely calcified and is easily dissected using forceps. Carefully open the bony labyrinth of the cochlea and remove the spiral ligament and attached organ of Corti coiled together along the spiral of the modiolus by unwinding apically from the modiolus. Starting at the base, separate the spiral ligament from the organ of Corti using fine forceps.
Transfer the dissected organ of Corti (OC) into individual 1.5 ml tubes filled with 850 ice cold HBSS. Transfer up to 12 OC tissues into the same tube, Quick-spin down OC tissues and remove the HBSS. Disassociate the cells by adding 100 μl pre-warmed TrypLE™ Select (Life Technologies) and incubate at 37° C. for 13 min. Quick spin down dissociated OC tissues. Remove TrypLE™ Select. Add 100 μl of Medium A (DMEM/F12, N2 supplement (LifeTechnologies), B27 supplement (LifeTechnologies), ampicillin (50 μg/ml) and Fungizone (LifeTechnologies), EGF (20 ng/ml), bFGF (10 ng/ml), IGF-1 50 ng/ml), and heparan sulfate (50 ng/ml)). The dissected and digested tissue is then triturated with a P200 pipette tip. Remove any cell aggregates and debris; transfer the cell suspension and wash through a pre-wetted 70 μm cell strainer to pool the cell suspension in a single fresh culture tube. Rinse dissociation tubes and the cell strainer with sufficient Medium A and pool with the cell suspension. Count cell density with hemocytometer or Countess® (Life Technologies). Add fresh Medium A to cell suspension to achieve a final plating density of 1.0E5 cell/ml and plate into ultra-low attachment cultureware, T-75 (Greiner).
The dissociated, single cells are cultured in an ultra-low attachment cultureware, (Greiner) in Medium A for 3 to 4 days in a 5% CO2 humidified incubator at 37° C. to obtain clonally grown spheres, termed first generation spheres, from the floating cells. If cells stick to the non-adherent dishes during the culture period they can be dislodged by gentle mixing.
After culturing the spheres for 3-4 days, visually count the spheres by microscope to standardize the seeding density of otic spheres per ml for this step. Collect the cells by centrifugation and re-suspend spheres in Basic Medium at a concentration of approximately 2000 spheres per ml. Seed the spheres in a volume of 150 μl per well of a cell culture-treated 96 well plate to obtain approximately 300 spheres per well. Treat the spheres with experimental agents in quadruplicate at a final volume of 200 μl in Basic Medium (DMEM/F12, N2 supplement (LifeTechnologies) B27 supplement (LifeTechnologies), ampicillin (50 μg/ml) and Fungizone (LifeTechnologies). Culture the treated spheres for 7 days in a humidified temperature controlled incubator at 5% CO2, 37° C. Remove medium and proceed with RNA extraction.
Add buffer RLT plus (Qiagen) supplemented with 1% Beta-mercaptoethanol, 175 μl per well. Add 2.5 μl of 4 ng/μl of RNA carrier (RNeasy® Plus Micro Kit; Qiagen) diluted in Buffer RLT Plus into each well before RNA extraction. Total RNA is extracted using the RNeasy® Plus Micro Kit (Qiagen) according to the manufacturer's instructions. […]

Atoh1 = experiment: Hair cell marker induction in whole otic capsule culture (RT-PCR); type: cell-based, mice; conditions: otic capsule explants, 48 hours in culture, vs vehicle-only control, n of 12-17
Text: The otic capsule (otic capsule explant), comprised of the cochlear bony labrinth and vestibular systems, is dissected from 1 to 4 day-old postnatal mice (transgenic strain: Atoh 1-driven nGFP; Lumpkin E A, et al., Gene Expr. Patterns, 2003, 3(4): 389-95) of both sexes generally according to the method described in Parker et al., Journal of Visualized Experiments, 2010, (36), e1685. The entire otic capsule is isolated from the parietal bone and maintained ex-vivo in a roller tube culture system for up to 3 days in medium containing DMEM, high glucose, 5% FBS, 5% horse serum, 1 μg/ml ampicillin.
The otic capsule explant is used to evaluate test compound, in various delivery vehicles, penetrance into the inner ear. Tests are carried out with compositions of Compound 1, Isomer 2, (7.2 mM) in various delivery vehicles. […]
The composition is allowed to remain for 1-2 hours then washed away with culture medium. […] The cochlea is broken open and the entire organ of Corti is then dissected out and prepared for quantitative RT-PCR to measure Atoh1 hair cell marker expression levels (as described in organ of Corti explant assay, above). […] Up-regulation of Atoh1 by Compound 1, Isomer 2, in all tested compositions (2-3 fold, n of 12-17) is measured in comparison to vehicle-only control-treated otic capsule explants after 48 hours in culture.

| Structure (SMILES) | RQ at 10 nM (Atoh1 expression) (mAtoh1) | RQ at 100 nM (Atoh1 expression) (mAtoh1) | RQ at 1 μM (Atoh1 expression) (mAtoh1) | Up-regulation of Atoh1 in all tested compositions (Atoh1) |
| --- | --- | --- | --- | --- |
| COc1ccc2c(c1)N1CCC(C)(C)C1=CC(=O)C2NC(=O)[C@H](C)NC(=O)CCC(F)(F)F (single isomer, unassigned) [Compound 1, Isomer 2] | 1.43 ± 0.17 | 1.76 ± 0.17 | 1.64 ± 0.13 | 2-3 fold |
| C[C@H](NC(=O)CCC(F)(F)F)C(=O)NC1C(=O)C=C2N(CCC2(C)C)c2ncccc21 (single isomer, unassigned) [Compound 2, Isomer 2] | 1.14 ± 0.07 | 1.21 ± 0.13 | 1.57 ± 0.11 |  |

— patent publication US10450317B2, “Notch pathway signaling inhibitor compounds” (Eli Lilly and Company, priority 2015, dated 2019)
